Results taken from patent US20260103479A1, “PRODRUGS OF OPICAPONE” (BIAL- PORTELA & CA, S.A., priority 2022, published 2026).

Experiments:
[1] = Oral pharmacokinetics in rats; assay type: in vivo, male Wistar rats; conditions: p.o. 3 mg/kg; for Cmax / Tmax / AUC(0-t): male, Wistar, po, rat plasma, analyte prodrug; for AUC(0-t): read-out: AUClast of prodrug; for opicapone pharmacokinetic profile after oral prodrug (comparison): FIG. 3b
Protocol: The pharmacokinetic properties of compounds 1 and 4 compared to micronized crystalline opicapone were assessed by oral administrations to 4 male Wistar rats (3 mg/kg; 0.2% HPMC).
(§1) During the studies, blood was collected at different time points, from tail vein, spun at 1500×g in a refrigerated centrifuge (4° C.) for 15 min, and the plasma obtained was stored at −80° C. until further analysis. The plasma samples collected were analysed for compound 1, compound 4 and opicapone exposure. The bioanalysis involved the use of LC-MS/MS after plasma precipitation.

[2] = In vitro stability in human liver S9 fraction; assay type: in vitro ADME; conditions: 1 μM; S9 1 mg/mL; after 0.75 h
Protocol: (§2) The stability of 1 μM of compound 1 was assessed in the following fractions: phosphate buffer, human plasma, rat plasma, human liver S9 fraction, rat liver S9 fraction and rat liver homogenates.
(§3) Reaction was initiated by adding of 1 μM of test compound to the desired matrix (plasma, liver homogenate at 0.4 g/mL or S9 fraction at 1 mg/mL, respectively), with a final volume of 350 μL. At the following time points 0, 5, 15, 30, 45, 60 min, 50 μL of sample is taken and precipitated with 200 μL of acetonitrile 1% formic acid containing the internal standard (opicapone ^13C6) at 1 μM. Samples were centrifuged at 20,000 g at 4° C. for 10 min, and then analysed by LC-MS/MS using a bioanalytical method previously developed in-house.
(§4) The stability of 1 μM of compound 4 was assessed in the following fractions: phosphate buffer, human plasma, rat plasma, human liver S9 fraction, rat liver S9 fraction and rat liver homogenates.
(§5) Reaction was initiated by adding 1 μM of test compound to the desired matrix (plasma or S9 fraction at 1 mg/mL), with a final volume of 250 μL. […] Samples were centrifuged at 20,000 g at 4° C. for 10 min, and then analysed by LC-MS/MS using bioanalytical methods previously developed in-house. […]

[3] = In vitro stability in potassium phosphate buffer pH 7.4; assay type: physicochemical; conditions: 1 μM, after 0.75 h
Protocol: as §2, §3
Solutions of the test compounds were prepared at 10 μM using 50 mM potassium phosphate buffer (KPB) at pH 7.4, by adding 1 μL of compound stock at 10 mM to 999 μL KPB 50 mM. […]
as §4, §5

[4] = In vitro stability in rat plasma; assay type: in vitro ADME; conditions: 1 μM; after 0.75 h
Protocol: as §2, §3, §4, §5

[5] = Intravenous pharmacokinetics in rats; assay type: in vivo, male Wistar rats; conditions: i.v. 1 mg/kg; for opicapone pharmacokinetic profile after intravenous prodrug (comparison): FIG. 4b; for AUC(0-t): read-out: AUClast of prodrug; for half-life: read-out: t1/2 of prodrug (converted); for Vd / clearance: plasma; for clearance: read-out: CL of prodrug (converted)
Protocol: The pharmacokinetic properties of compounds 1 and 4 compared to micronized crystalline opicapone were assessed by intravenous injection to 3 male Wistar rats (1 mg/kg; DMSO:20% HPBCD (1:9).
as §1, with “jugular” for “tail”

[6] = Subcutaneous pharmacokinetics in rats; assay type: in vivo, male Wistar rats; conditions: s.c. 3 mg/kg; for Cmax / Tmax / AUC(0-t): male, Wistar, sc, rat plasma, analyte prodrug; for AUC(0-t): read-out: AUClast of prodrug; for irritation at the injection site: DMSO:20% HPBCD (1:9), rat
Protocol: The pharmacokinetic properties of compounds 1 and 4 were assessed by subcutaneous injection to 4 male Wistar rats (3 mg/kg; DMSO:20% HPBCD (1:9)).
as §1

[7] = In vitro stability / conversion to opicapone in rat liver homogenates; assay type: in vitro ADME; conditions: 1 μM
Protocol: as §2, §3, §4
Reaction was initiated by adding 1 μM of test compound to the desired matrix (plasma or S9 fraction at 1 mg/mL), with a final volume of 250 μL. For plasma, at the time points of 0, 15, 30, 45 and 60 min of incubation, 50 μL of sample is taken and precipitated with 100 μL of internal standard working solution (ISWS) consisting of acetonitrile 1% formic acid containing the internal standard (opicapone ^13C6) at 1 μM. For S9 fraction, 50 μL of sample was taken and precipitated with 100 μL of ISWS after 60 min of incubation. For rat liver homogenates (0.2 g/mL of protein), reaction was initiated by adding of 1 μM of test compound with a final volume of 350 μL. At the following time points of 0, 5, 15, 30, 45, 60 min of incubation, 50 μL of sample is taken and precipitated with 200 μL ISWS. Samples were centrifuged at 20,000 g at 4° C. for 10 min, and then analysed by LC-MS/MS using bioanalytical methods previously developed in-house. Compound 4 was stable in all matrices with exception of rat liver homogenates, where the remaining compound was of approximately 31%, after 60 min of incubation. Solutions of the test compounds were prepared at 10 μM using 50 mM potassium phosphate buffer (KPB) at pH 7.4, by adding 1 μL of compound stock at 10 mM to 999 μL KPB 50 mM.

[8] = In vitro stability in rat liver S9 fraction; assay type: in vitro ADME; conditions: 1 μM; S9 1 mg/mL; after 0.75 h
Protocol: as §2, §3, §4, §5

[9] = In vitro stability in human plasma; assay type: in vitro ADME; conditions: 1 μM; after 0.75 h
Protocol: as §2, §3, §4, §5

[10] = male, Wistar, iv, rat plasma, analyte prodrug
[11] = male, Wistar, iv, rat, analyte prodrug

Compound: Cc1c(Cl)c(C)[n+]([O-])c(Cl)c1-c1noc(-c2cc(OP(=O)(O)O)c(O)c([N+](=O)[O-])c2)n1 [Compound 1, 2,5-dichloro-3-(5-(4-hydroxy-3-nitro-5-(phosphonooxy)phenyl)-1,2,4-oxadiazol-3-yl)-4,6-dimethylpyridine 1-oxide]
- Cmax [1]: 146 ng/mL
- Tmax [1]: 30 min
- AUC(0-t) [1]: 417 ng·h/mL
- oral pharmacokinetic properties of the prodrug (comparison) ([1]; rat, FIG. 3a): improved pharmacokinetic properties compared to compound 4
- opicapone pharmacokinetic profile after oral prodrug (comparison) ([1]; rat): comparable to opicapone itself
- stability in human liver S9 fraction [2]: stable
- stability in buffer [3]: stable
- stability in rat plasma [4]: stable
- intravenous pharmacokinetic properties of the prodrug (comparison) ([5]; rat, FIG. 4a): improved pharmacokinetic properties compared to compound 4
- opicapone pharmacokinetic profile after intravenous prodrug (comparison) ([5]; rat): comparable to opicapone itself
- C0 [5, 10]: 29400 ng/mL
- AUC(0-t) [5, 10]: 30700 ng·h/mL
- half-life [5, 10]: 156 min
- Vd [5, 11]: 0.123 L/kg
- clearance [5, 11]: 0.643 mL/min/kg
- Cmax [6]: 7770 ng/mL
- Tmax [6]: 60 min
- AUC(0-t) [6]: 15500 ng·h/mL
- irritation at the injection site [6]: low levels of irritation
- conversion to opicapone in rat liver homogenates [7]: successfully converted to opicapone
- % remaining of the parent compound ([7]; rat liver homogenate 0.4 g/mL, after 0.5 h): less than 25%
- stability in rat liver S9 fraction [8]: stable
- stability in human plasma [9]: stable

Compound: Cc1c(Cl)c(C)[n+]([O-])c(Cl)c1-c1noc(-c2cc(OCOP(=O)(O)O)c(O)c([N+](=O)[O-])c2)n1 [Compound 4, 2,5-dichloro-3-(5-(4-hydroxy-3-nitro-5-((phosphonooxy)methoxy)phenyl)-1,2,4-oxadiazol-3-yl)-4,6-dimethylpyridine 1-oxide]
- Cmax [1]: 32.5 ng/mL
- Tmax [1]: 30 min
- AUC(0-t) [1]: 26.5 ng·h/mL
- opicapone pharmacokinetic profile after oral prodrug (comparison) ([1]; rat): worse oral pharmacokinetic parameters
- stability in human liver S9 fraction [2]: stable
- stability in buffer [3]: stable
- stability in rat plasma [4]: stable
- opicapone pharmacokinetic profile after intravenous prodrug (comparison) ([5]; rat): worse intravenous pharmacokinetic parameters
- C0 [5, 10]: 21900 ng/mL
- Tmax [5, 10]: 4.8 min
- AUC(0-t) [5, 10]: 4990 ng·h/mL
- half-life [5, 10]: 174 min
- Vd [5, 11]: 1.99 L/kg
- clearance [5, 11]: 3.58 mL/min/kg
- Cmax [6]: 3140 ng/mL
- Tmax [6]: 30 min
- AUC(0-t) [6]: 9660 ng·h/mL
- irritation at the injection site [6]: low levels of irritation
- conversion to opicapone in rat liver homogenates [7]: successfully converted to opicapone
- remaining compound ([7]; rat liver homogenates 0.2 g/mL, after 60 min of incubation): approximately 31%
- stability in rat liver S9 fraction [8]: stable
- stability in human plasma [9]: stable
